Values after ≈ are worked out from the molar mass of the structure shown. Values joined by “and” are separate entries in the source; they are usually repeats but may differ in a detail not shown here. Identical values can stand only once.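 Step 1: Grow cells in 96-well plates. Step 2: Expose to compound for 48 hours at 5 concentrations. Step 3: Interpolate endpoints linearly; if unreached, use highest concentration. The concentration for 50% growth inhibition is given as GI50. TGI: total growth inhibition.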 Where a SMILES comes first, the peptide text is derived from it. [ ]: non-standard residue; d: D form. Ac5c = NC1(C(=O)O)CCCC1

Among the test systems are MDA-N; P388 leukemia; P388/ADR leukemia.
Common to all, as to assay: NCI tumour cell line growth inhibition, 48 h

Compound `CCOC(=O)Nc1nc2ccc(Cn3cccc3)cc2[nH]1` had a TGI in the test on MDA-N of 0.965 µM.

For the compound `Nc1ccc(N(S(=O)(=O)c2ccccc2)S(=O)(=O)c2ccccc2)c(Cl)c1`, in the test with MDA-N, the TGI is greater than 100 µM.

With `O=Cc1ccc(-c2cc(C=O)c(-c3cccs3)[nH]2)s1`, in the test on MDA-N, the GI50 was 33.7 µM; the TGI was 75 µM and > 100 µM.

Take `Cc1c[nH]c2c(O)cc3c(c12)[C@H](CCl)CN3C(=O)c1cc2cc(NC(=O)Nc3ccc4[nH]c(C(=O)N5C[C@@H](CCl)c6c5cc(O)c5[nH]cc(C)c65)cc4c3)ccc2[nH]1`: the GI50 with MDA-N is 0.0123 µM; in the test on P388 leukemia, 0.000887 ng/mL and 0.888 ng/mL; in the test on P388/ADR leukemia, 0.888 ng/mL (≈ 0.00109 µM). Moreover, the TGI with P388/ADR leukemia stood at 83 ng/mL (≈ 0.102 µM).

`CN1CCN(CCCN)CC1` displayed a TGI in the test on MDA-N greater than 100 µM.

For `CO[C@@H]1/C=C\C=C(/C)C(=O)NC2=CC(=O)C(NCCN(C)C)=C(C[C@@H](C)C[C@@H](OC)[C@@H](O)[C@H](C)/C=C(\C)[C@H]1OC(N)=O)C2=O`, the TGI in the test with MDA-N is 1.92 µM and 2.18 µM.

Take `Cn1ccnc1CC(C)(O)c1ccccc1` (stereo not drawn): the TGI in the test with MDA-N was greater than 100 µM.

The compound `CCN(CC)CCCC(C)Nc1c2ccc(Cl)cc2nc2ccc(OC)cc12` (stereo not drawn) displayed a TGI in the test with MDA-N of 3.95 µM.

`CCC1(CC)C(=O)OC(=O)C1(CC)CC`: in the test on MDA-N, the TGI is greater than 100 µM.

Take `COC(=O)CCc1cc(OC)c2c(c1)C(C(=O)OC)C(c1ccc(OC)c(OC)c1)O2` (stereo not drawn): the TGI in the test with MDA-N was > 100 µM and 23.2 µM.

Consider `O=c1ccn(C2OC(CO)C(O)C2F)c(=O)[nH]1` (stereo not drawn), for which, in the test with MDA-N, the TGI was greater than 100 µM.

`CCN(CC)CC(O)CNc1ccc(NCC2CO2)c2c1C(=O)c1ccccc1C2=O` (stereo not drawn): in the test on MDA-N, the GI50 was 0.257 µM and the TGI came to 2.31 µM.

Regarding `NC1(C(=O)NC2(C(=O)O)CCCC2)CCCC1` (H-[Ac5c]-[Ac5c]-OH), the TGI with MDA-N is greater than 100 µM.

Values taken from PubChem BioAssay (NCI).
